Assay [1] can be described thus: viability of BHK-21 cells – cell-based, secondary screen, cytotoxicity control for flavivirus guanylyltransferase probe project (AID 624078). In kind it is functional.
Assay [2] deals with RNA-editing ligase 1, mitochondrial (Trypanosoma brucei brucei, UniProt P86926). Put plainly: inhibition of trypanosome RNA editing ligase – biochemical, fluorescence, Trypanosoma brucei, dose response (AID 1117295). The assay is classed as functional.
Assay [3] addresses T1, Fibrinogen beta chain (Homo sapiens, UniProt P02675). Put plainly: Fluorescence polarization-based biochemical high throughput dose response assay to identify inhibitors that disrupt the binding of a cyclic peptide (Tn7) to the fibrin proteolytic product D-Dimer and fragment E complex [DD(E )]. On the technique in general: Fluorescence polarisation rises when a labelled molecule tumbles more slowly, as on binding a larger partner.

The target in assay [4] is T1, Fibrinogen beta chain. Put plainly: Fluorescence polarization-based biochemical high throughput dose response assay to identify inhibitors that disrupt the binding of a cyclic peptide (Tn6) to the fibrin proteolytic product D-Dimer and fragment E complex [DD(E )].
Assay [5] concerns the target T2, Neuropeptide Y receptor type 2 (Homo sapiens, UniProt P49146).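 Further: HEK293 cells expressing the receptor and a CNG channel; stimulus was NPY near EC95 followed by isoproterenol to raise cAMP; antagonist potency measured as restoring cAMP signal that NPY suppresses.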
T2 sequence (P49146 whole entry): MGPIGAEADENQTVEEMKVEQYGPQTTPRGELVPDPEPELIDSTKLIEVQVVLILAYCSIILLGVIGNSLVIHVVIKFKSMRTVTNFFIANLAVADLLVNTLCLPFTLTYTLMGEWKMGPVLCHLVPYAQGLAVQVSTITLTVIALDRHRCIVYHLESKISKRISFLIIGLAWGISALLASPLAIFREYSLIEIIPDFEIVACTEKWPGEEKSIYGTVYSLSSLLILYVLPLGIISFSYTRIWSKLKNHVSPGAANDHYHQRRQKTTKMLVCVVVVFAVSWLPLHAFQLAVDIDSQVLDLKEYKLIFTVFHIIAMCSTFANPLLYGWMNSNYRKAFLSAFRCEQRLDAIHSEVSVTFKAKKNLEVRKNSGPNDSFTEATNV
The assay is classed as functional, cell-based.

Assay [6] concerns the target T3, Fatty acid synthase (Homo sapiens, UniProt P49327). Put plainly: inhibition of human FAS-TE enzyme activity – biochemical, kinetic fluorescence intensity, dose response (AID 624326).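 Further: rate of fluorescence rise from hydrolysis of a fluorogenic O-methyl fluorescein ester substrate.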 The assay is classed as functional.
Assay [7] deals with T4, Neuropeptide Y receptor type 1 (Homo sapiens, UniProt P25929).
T4 sequence (P25929 whole entry): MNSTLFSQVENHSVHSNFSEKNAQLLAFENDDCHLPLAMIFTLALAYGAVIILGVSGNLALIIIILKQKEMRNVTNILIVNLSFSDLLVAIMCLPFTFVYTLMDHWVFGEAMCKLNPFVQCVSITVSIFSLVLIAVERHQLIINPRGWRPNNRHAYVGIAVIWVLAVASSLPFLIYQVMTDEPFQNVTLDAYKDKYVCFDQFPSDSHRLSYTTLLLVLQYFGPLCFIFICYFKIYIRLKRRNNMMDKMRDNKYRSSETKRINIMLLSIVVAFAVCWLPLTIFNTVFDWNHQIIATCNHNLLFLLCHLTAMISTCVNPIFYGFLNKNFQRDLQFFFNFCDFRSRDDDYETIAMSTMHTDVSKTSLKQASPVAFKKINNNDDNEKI
The assay is classed as functional.

Assay [8] concerns the target T3, Fatty acid synthase. Put plainly: inhibition of human FAS-TE enzyme activity – biochemical, endpoint fluorescence intensity, uHTS hits, dose response (AID 624327).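 Further: fluorescence from hydrolysis of an O-methyl fluorescein acyl ester substrate by the enzyme.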 In kind it is functional.
A short description of assay [9]: Dd2 parasite growth inhibition in erythrocytes – SYBR Green, dry powder samples, set 4, dose response (AID 1159572). The assay is classed as functional, cell-based.
For assay [10], the target named is Kallikrein-7 (Homo sapiens, UniProt P49862). Put plainly: Fluorescence Intensity-based biochemical primary high throughput dose response assay to identify activators of kallikrein-7 (K7) zymogen.
The target in assay [11] is Cytochrome P450 3A4 (Homo sapiens, UniProt P08684).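 Further: CYP3A4 tested as one member of a cytochrome P450 panel screen.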
The nature of assay [12]: cells.
Assay [13] is described as follows: viability loss in HepG2 liver cells – cell-based, ATP luminescence, cherry-pick, set 6, cytotoxicity control, dose response (AID 1053125). The assay is classed as functional.
A short description of assay [14]: cells. To be noted: A549.
Assay [15] has as its system HEK293. Put plainly: viability loss in HEK293T cells – cell-based, ATP luminescence, cherry-pick samples, cytotoxicity control, dose response (AID 687005).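 Further: cells exposed to compound for 48 hours.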 The assay is classed as functional. To be noted: Homo sapiens.
Assay [16] in a line: P. falciparum Dd2 growth inhibitors, dose response, SYBR Green, cherry-picked samples (AID 1159567). In kind it is functional, cell-based.
Assay [17] is described as follows: toxicity to human hepatoma HepG2 cells – cell-based, cherry-picked samples, cytotoxicity control, dose response (AID 1159577). In kind it is functional.
A short description of assay [18]: HEK293 Cytotoxicity Assay Measured in Cell-Based System Using Plate Reader - 7071-01_Inhibitor_Dose_CherryPick_Activity_Set2. The assay is classed as functional.

As a reminder, the CC50 is the concentration that lowers cell viability or growth by half. As a reminder, the IC50 is the concentration that gives 50% inhibition. One may read the AC50 as the concentration giving half of the maximal activity seen. The term EC50 denotes the concentration at which the effect is half-maximal.

Calls of active or inactive are those of the source.

T1 sequence (P02675 whole entry, the tested form may be a part): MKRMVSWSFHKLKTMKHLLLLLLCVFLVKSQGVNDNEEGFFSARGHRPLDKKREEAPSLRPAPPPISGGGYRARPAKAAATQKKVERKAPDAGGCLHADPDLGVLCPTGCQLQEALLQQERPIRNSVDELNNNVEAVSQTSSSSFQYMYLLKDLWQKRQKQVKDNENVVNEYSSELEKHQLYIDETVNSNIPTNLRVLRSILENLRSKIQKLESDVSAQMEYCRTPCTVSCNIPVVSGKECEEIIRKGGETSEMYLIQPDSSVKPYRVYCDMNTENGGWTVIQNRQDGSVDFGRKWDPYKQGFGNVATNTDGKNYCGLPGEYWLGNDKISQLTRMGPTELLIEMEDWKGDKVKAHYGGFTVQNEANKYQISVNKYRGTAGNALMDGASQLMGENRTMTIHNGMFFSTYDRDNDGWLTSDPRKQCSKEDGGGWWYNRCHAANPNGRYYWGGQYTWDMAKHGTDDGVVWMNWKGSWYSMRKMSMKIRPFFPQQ
T3 sequence (P49327 whole entry): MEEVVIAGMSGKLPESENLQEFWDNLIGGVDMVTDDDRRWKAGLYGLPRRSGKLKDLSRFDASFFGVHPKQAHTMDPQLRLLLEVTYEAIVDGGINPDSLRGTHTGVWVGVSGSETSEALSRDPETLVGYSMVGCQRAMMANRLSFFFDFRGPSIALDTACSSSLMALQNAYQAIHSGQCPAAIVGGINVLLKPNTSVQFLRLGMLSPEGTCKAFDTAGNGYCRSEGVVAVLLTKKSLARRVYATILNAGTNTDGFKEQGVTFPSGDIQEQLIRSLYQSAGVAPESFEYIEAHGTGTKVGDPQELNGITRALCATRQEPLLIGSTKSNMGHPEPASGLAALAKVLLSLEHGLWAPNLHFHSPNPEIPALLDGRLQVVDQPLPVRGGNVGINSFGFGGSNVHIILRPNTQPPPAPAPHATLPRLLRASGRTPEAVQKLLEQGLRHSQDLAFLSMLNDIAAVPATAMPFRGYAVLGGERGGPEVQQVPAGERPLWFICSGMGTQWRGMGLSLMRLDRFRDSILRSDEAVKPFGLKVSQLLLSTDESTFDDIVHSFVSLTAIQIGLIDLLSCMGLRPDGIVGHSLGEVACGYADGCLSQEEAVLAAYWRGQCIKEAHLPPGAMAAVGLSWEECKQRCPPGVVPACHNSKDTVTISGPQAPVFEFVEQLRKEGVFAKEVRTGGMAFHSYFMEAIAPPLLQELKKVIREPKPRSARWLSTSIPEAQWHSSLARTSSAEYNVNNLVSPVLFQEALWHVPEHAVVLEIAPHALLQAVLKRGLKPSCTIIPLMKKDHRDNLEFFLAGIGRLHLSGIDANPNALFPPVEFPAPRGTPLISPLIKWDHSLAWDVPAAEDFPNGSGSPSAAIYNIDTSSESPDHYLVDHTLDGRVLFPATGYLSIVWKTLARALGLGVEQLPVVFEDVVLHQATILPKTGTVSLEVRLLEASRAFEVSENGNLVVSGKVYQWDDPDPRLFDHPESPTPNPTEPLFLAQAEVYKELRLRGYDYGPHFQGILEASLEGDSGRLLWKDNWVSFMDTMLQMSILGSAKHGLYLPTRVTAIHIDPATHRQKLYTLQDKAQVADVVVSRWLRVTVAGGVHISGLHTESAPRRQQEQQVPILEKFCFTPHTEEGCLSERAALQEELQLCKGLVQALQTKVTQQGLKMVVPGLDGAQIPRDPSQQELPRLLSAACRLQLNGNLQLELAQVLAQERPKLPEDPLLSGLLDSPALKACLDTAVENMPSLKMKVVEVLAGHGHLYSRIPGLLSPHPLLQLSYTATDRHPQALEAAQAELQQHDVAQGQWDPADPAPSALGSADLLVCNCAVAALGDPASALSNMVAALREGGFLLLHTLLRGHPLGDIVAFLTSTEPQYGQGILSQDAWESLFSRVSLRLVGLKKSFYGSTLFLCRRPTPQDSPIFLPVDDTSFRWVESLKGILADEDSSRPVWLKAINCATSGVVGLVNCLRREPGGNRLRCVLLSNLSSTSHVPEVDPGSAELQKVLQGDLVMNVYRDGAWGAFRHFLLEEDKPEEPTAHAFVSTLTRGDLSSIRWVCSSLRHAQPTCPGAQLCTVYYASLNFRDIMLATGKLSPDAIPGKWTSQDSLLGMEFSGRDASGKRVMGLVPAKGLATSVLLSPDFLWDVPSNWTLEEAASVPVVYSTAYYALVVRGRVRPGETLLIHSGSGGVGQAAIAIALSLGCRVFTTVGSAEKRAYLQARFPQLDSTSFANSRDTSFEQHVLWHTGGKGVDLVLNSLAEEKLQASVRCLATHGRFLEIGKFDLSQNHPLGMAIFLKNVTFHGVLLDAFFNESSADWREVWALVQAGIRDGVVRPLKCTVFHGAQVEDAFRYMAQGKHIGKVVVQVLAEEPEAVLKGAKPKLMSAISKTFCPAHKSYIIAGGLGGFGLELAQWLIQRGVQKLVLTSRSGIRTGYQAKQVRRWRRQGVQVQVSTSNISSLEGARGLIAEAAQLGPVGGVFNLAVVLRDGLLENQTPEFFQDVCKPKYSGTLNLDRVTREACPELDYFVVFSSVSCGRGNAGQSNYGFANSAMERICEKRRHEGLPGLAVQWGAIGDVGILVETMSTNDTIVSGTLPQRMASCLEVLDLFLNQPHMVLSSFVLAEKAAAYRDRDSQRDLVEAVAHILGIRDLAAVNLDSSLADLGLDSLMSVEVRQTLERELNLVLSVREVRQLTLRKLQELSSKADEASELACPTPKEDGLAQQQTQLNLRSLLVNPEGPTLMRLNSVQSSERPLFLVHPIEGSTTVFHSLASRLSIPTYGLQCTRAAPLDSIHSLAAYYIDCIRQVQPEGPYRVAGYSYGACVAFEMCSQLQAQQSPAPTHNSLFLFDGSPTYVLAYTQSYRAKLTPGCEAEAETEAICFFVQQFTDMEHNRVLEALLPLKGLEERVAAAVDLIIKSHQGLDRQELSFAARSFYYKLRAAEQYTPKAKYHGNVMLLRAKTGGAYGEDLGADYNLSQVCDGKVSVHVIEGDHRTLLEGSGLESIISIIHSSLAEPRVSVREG
Sequence of RNA-editing ligase 1, mitochondrial (P86926 whole entry, the tested form may be a part): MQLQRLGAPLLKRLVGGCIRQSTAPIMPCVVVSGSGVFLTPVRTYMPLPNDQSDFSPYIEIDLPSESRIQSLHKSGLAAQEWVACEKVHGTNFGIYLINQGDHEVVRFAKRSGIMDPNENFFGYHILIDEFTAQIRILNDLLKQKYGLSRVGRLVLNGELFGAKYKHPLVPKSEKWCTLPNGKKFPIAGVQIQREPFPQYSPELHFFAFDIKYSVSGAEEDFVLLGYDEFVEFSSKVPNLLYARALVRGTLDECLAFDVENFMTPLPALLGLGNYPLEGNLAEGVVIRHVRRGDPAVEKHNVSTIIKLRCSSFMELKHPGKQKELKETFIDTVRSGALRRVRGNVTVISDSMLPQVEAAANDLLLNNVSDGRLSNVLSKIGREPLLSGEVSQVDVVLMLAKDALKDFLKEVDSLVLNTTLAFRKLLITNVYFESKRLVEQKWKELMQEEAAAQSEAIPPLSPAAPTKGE
Sequence of Cytochrome P450 3A4 (P08684 whole entry): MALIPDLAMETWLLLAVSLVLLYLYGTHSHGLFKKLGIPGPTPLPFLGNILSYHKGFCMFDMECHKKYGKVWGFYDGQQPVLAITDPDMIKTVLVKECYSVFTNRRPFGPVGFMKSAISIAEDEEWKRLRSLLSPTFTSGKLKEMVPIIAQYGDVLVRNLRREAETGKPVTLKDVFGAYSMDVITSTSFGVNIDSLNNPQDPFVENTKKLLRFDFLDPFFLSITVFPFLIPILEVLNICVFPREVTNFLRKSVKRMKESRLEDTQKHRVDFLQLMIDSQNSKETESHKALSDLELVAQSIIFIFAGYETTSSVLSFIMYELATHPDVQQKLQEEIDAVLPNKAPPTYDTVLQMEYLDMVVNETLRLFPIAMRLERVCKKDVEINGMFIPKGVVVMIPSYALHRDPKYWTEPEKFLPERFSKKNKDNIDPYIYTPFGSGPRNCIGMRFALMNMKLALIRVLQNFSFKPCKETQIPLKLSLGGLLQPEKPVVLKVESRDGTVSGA
Sequence of Kallikrein-7 (P49862 whole entry): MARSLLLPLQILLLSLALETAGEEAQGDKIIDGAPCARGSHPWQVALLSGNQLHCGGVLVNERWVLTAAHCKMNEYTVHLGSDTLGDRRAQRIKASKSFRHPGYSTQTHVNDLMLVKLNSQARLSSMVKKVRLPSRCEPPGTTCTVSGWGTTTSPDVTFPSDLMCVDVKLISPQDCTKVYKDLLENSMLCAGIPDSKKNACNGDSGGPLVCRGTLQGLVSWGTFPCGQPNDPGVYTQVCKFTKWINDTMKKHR

In the case of `O=S(=O)(Nc1cc(Sc2nc[nH]n2)c(O)c2ccccc12)c1ccc(F)cc1`, the CC50 in assay [1] is 14.3 µM (active).

Turning to `COC(=O)C1=C(C)N(Cc2ccccc2C(F)(F)F)C(NCc2ccc(OC)cc2)=NC1c1cccc(F)c1` (stereo not drawn), the IC50 in assay [2] is > 96.6 µM (inactive).

`O=C(Nc1ccc(Cl)cc1)c1csc(-c2ccccc2)n1`: the IC50 in assay [3] is > 83.3 µM (inactive); in [4], > 83.3 µM (inactive); in assay [5], 10.1 µM (not active); in assay [6], 13.5 µM (active); in assay [7] it was 6.94 µM (active); in [8], 12.3 µM (active).

Consider `COc1ccc2c3c(n(C)c2c1)[C@H](CO)N(C(C)=O)CC31CCN(C(=O)Nc2ccccc2F)CC1`, for which the AC50 in [9] was 6.63 µM (active).

For `CCN(CC)Cc1c(O)ccc2c(=O)c(Oc3ccccc3OC)coc12`, in [10], the EC50 is 13.1 µM (inactive). Besides, the AC50 in assay [11] was 25.1 µM (inconclusive).

As for `CC1CCCCN1Cc1c(O)ccc2c(=O)c(-c3nc4ccccc4s3)coc12` (stereo not drawn), the AC50 in [12] is 47 µM (active); in assay [13], 40.4 µM (active); in assay [14], 44.8 µM (active).

Take `C[C@H](CO)N1C[C@H](C)[C@H](CN(C)S(=O)(=O)c2ccc(F)cc2)Oc2ccc(NS(=O)(=O)c3ccc(Cl)cc3)cc2C1=O`: the AC50 was 18.9 µM (active) in assay [15], 10 µM (active) in assay [16], > 39 µM (inactive) in assay [17] and 18.9 µM (active) in assay [18].

For the origin of these results see ChEMBL document CHEMBL1201862, “PubChem BioAssay data set” (2004).
